# Measurements as given in patent US20240374763A1, “DIAGNOSIS AND MONITORING USING EXTRADOMAIN-B FIBRONECTIN TARGETED PROBES” (Case Western Reserve University, priority 2020, published 2024).
# No end group written: not given here.
# What was measured:
# Type in all cases: in vivo, mice
# Hs578T tumors = assay: MRMI-mediated monitoring of therapeutic response, Hs578T tumors; conditions: pretreatment Hs578T tumors, MT218 0.1 mmol/kg, first 30 min
# Method: The targeted MRI contrast agent ZD2-N3-Gd(HP-DO3A) (MT218) was provided by Molecular Theranostics (Cleveland, OH) and was synthesized. MR images of the mice bearing MDA-MB-231 or Hs578T tumors were acquired on a 3T MRS 3000 scanner (MRS Solutions, Surrey, UK) with a mouse short quad coil. T1-weighted images were acquired following intravenous injection of MT218 at dose of 0.1 mmol/kg using a fast spin echo (FSE) axial sequence with respiratory gating (TR=305 ms, TE=11 ms, FA=90°, FOV=40×40 mm, slice thickness=1 mm, slice number=15, Nav=2, matrix=256×256). Images were acquired before and at 10, 20, and 30 min after injection of MT218. MRMI was performed before the treatment and then at week 6 post-nanoparticle treatments for MDA-MB-231 and Hs578T tumors. MRI data and image processing was conducted using FIJI (FIJI is just ImageJ) software. The contrast-to-noise ratios (CNRs) of tumors were calculated as the difference of the mean tumor intensity and the mean muscle intensity divided by the standard deviation of the noise.
# LNCaP tumors = assay: MRMI with MT218, LNCaP xenografts; conditions: 0.04 mmol Gd/kg, 20 min post-injection
# From the text: (§1) Xenograft models were established by subcutaneous flank injections in athymic nu/nu mice for the 4 prostate cancer cells and tested with MRMI using 0.04 mmol Gd/kg of MT218.
# RKO-DR tumors = assay: MRMI of EDB-FN with MT218, RKO-DR xenografts
# Method: (§2) Nude athymic mice (6-week-old nu/nu females) were purchased from The Jackson Laboratory (Bar Harbor, […]) and housed in the Animal Facility at CWRU. All the animal experiments were performed according to the protocol approved by the IACUC of CWRU. For assessment of drug resistance, 2 drug-resistant and 2 non-drug-resistant models were set up. About 3-4×10^6 DLD-1, RKO, DLD1-DR, and RKO-DR cells suspended in Matrigel-PBS mixture (1:1) were subcutaneously injected in the left flanks of nude mice (100 μL per mouse, 5 mice per group×4 models=20 mice). After 9 days when the tumors reached 100-200 mm3, MRMI was performed on the 4 xenograft models with 40 μmol/kg dose of MT218. The animals were then euthanized, and the tumors were harvested for post-mortem histology and IHC.
# MT218 was synthesized as previously described. Ayat, N. R., et al., ACS Med Chem Lett, 2018. 9(7): p. 730-735. Briefly, click reaction between alkynyl-ZD2 and N3-Gd(HP-DO3A) was performed in the presence of CuSO4 and ascorbate at room temperature, followed by FLASH chromatography purification and validation of MT218 by MALDI-TOF mass spectrometry (m.w. 1443). For assessment of drug resistance and therapeutic monitoring, MRMI was performed in a 3T MRS 3000 scanner (MR Solutions, Surrey, UK) with a mouse short quad coil. The mice were anesthetized with isofluorane and tail vein catheter was setup. T1-weighted MR images were obtained before (pre-contrast) and 25 min after injection (post-contrast) of 40 μmol/kg dose of MT218 [ZD2-N3—Gd(HP-DO3A)]. The following two sequences were used with respiratory gating: axial fast spin echo (FSE) (TR=305 ms, TE=11 ms, FA=90°, FOV=40 mm×40 mm, slice thickness=1 mm, slice number=15, Nav=2, matrix=256×256) and coronal FSE (TR=305 ms, TE=11 ms, FA=90°, FOV=90 mm×90 mm, slice thickness=1 mm, slice number=20, Nav=1, matrix=248×512). […] Contrast-to-noise ratios (CNRs) were calculated as (mean tumor intensity—mean muscle intensity)/standard deviation of noise. […]
# HSC3 tumors = assay: MRMI of OSCC flank xenografts, HSC3; conditions: MT218 0.04 mmol/kg
# Method: Animal experiments were performed under an animal protocol approved by the Institutional Animal Care and Use Committee (IACUC) at Case Western Reserve University (CWRU, Cleveland, OH, USA). Female 4-week-old athymic nude mice purchased from the Jackson Laboratory (Bar Harbor, ME, USA) were housed in the Animal Core Facility at CWRU. Anesthetized mice were subcutaneously inoculated in the right flank with 4×10^6 GFP/luciferase-expressing OSCC cells (n=5 per cell line) in 100 μL of a 1:1 mixture of Matrigel HC (Corning) and DPBS. Tumor size was monitored with caliper measurements. After 4 weeks of growth, tumors were sufficiently large for MRI experiments.
# MRI experiments were performed with a 3T MRS-3000 system (MR Solutions, Surrey, UK). Tumor-bearing mice were imaged before and at 10, 20, […] spin-echo axial sequence with respiratory gating (TR=305 ms, TE=11 ms, FOV=40×40 mm, slice thickness=1 mm, number of slices=15, Nav=2, matrix=256×248). This protocol was repeated on the same mice 2 days later using the untargeted clinical agent gadoteridol at the clinical dose of 0.10 mmol/kg.
# Images were exported in DICOM format and analyzed using FIJI. Contrast-to-noise ratio (CNR) for each time point was calculated as the difference between the mean tumor intensity and the mean muscle intensity, divided by the standard deviation of noise.
# C4-2-DR tumors = assay: MRMI with MT218, C4-2-DR xenografts; conditions: 0.04 mmol Gd/kg, 20 min post-injection
# From the text: as §1
# RKO tumors = assay: MRMI of EDB-FN with MT218, RKO xenografts; conditions: 40 μmol/kg MT218, 25 min post-injection
# Method: as §2
# MT218 was synthesized as previously described. Ayat, N. R., et al., ACS Med Chem Lett, 2018. 9(7): p. 730-735. Briefly, click reaction between alkynyl-ZD2 and N3-Gd(HP-DO3A) was performed in the presence of CuSO4 and ascorbate at room temperature, followed by FLASH chromatography purification and validation of MT218 by MALDI-TOF mass spectrometry (m.w. 1443). […] Contrast-to-noise ratios (CNRs) were calculated as (mean tumor intensity—mean muscle intensity)/standard deviation of noise. […]
# [1] = RKO-DR over RKO tumors, 40 μmol/kg MT218
substance,measurement,setting,value
"ZD2-N3-Gd(HP-DO3A) (TVRTSAD; also: conjugated to Gd(HP-DO3A) by click reaction of alkynyl-ZD2 with N3-Gd(HP-DO3A), residue of attachment not given here, Gd complex) [MT218, EDB-FN-targeted MRI contrast agent; ZD2 peptide conjugated to the clinical macrocyclic agent Gd(HP-DO3A)]",signal enhancement vs pre-contrast,Hs578T tumors,Strong signal enhancement
same,increase in CNR,LNCaP tumors,negligible
same,higher CNRs over the non-resistant tumors,RKO-DR tumors; [1],1.8 fold
same,increase in CNR over the non-resistant tumors,RKO-DR tumors; [1],84%
same,higher CNRs over pre-contrast,"RKO-DR tumors; RKO-DR tumors, 40 μmol/kg MT218, 25 min post-injection",2.6 fold
same,average maximum enhancement (CNR),HSC3 tumors,2.61±0.17
same,increase of CNR,C4-2-DR tumors,6 fold
same,increase in CNRs over the pre-contrast,RKO tumors,1.4 fold
